In US10335365B2, “Bladder cancer specific ligand peptides” (The Regents of the University of California, priority 2009, dated 2019):
pKd: −log10 of the molar value. Entries after “also recorded” stand apart in the source; their conditions may differ. Positions of bridges follow the written chain, without caps; N, C: chain ends. Non-standard residues stand in square brackets, D forms with d. No end group written: not given here.

Assays:
normal urothelial cells = assay: Whole cell bead binding assay, normal urothelial cells; parameters: species or system human; conditions: peptide on OBOC beads
Description: Four bladder cancer cell lines including 5637 (HTB-9), SCaBER, TCCSUP (HTB-5), and T24 (HTB-4) were purchased from the American Type Culture Collection (Manassas, Va.). The isolation, characterization and maintenance of normal urothelial cells was previously described in detail (Bagai, et al., J Biol Chem, (2002) 277: 23828-23837). Normal peripheral blood mononuclear cells were prepared by using the Ficoll-Paque gradient method from peripheral blood of healthy donors. Bladder cancer tissue obtained from cystectomy was cut into pieces, digested with collagenase at 37° C. for 1-2 hours per the manufacturer's protocol, and filtered through a 40-μm strainer to make single cell suspension. Tumor cells were then isolated with Ficoll-Paque gradient method (800 g, 30 min at 4° C.). Informed consent was obtained from each patient or healthy donor before specimens were collected.
The beads were washed extensively with double-distilled water and phosphate-buffered saline (PBS) before screening. Bladder cancer cells and normal urothelial cells were detached from culture dishes with trypsin/EDTA or a Detach kit (PromoCell, Heidelberg, Germany), washed with their corresponding culture medium, resuspended at 10^6 cells/ml and incubated with OBOC beads in Petri dishes in a humidified CO2 incubator at 37° C. with shaking (60 rpm). […]

[1] = test system: 12 cell lines with different origins; assay: Whole cell bead binding assay, 12 cell lines of different origins; parameters: species or system human
[2] = test system: Human bladder cancer cell line 5637; assay: Whole cell binding assay of Example 2, 5637 positive control; conditions: PLZ4 beads, 10^6 cells/ml
Description: (§1) This experiment was repeated 3 times for cell lines. […] 5637 human bladder cancer cell line; b. […] The average diameter of the beads is 90 μm. […] This experiment was repeated for 3 times. (200×)
(§2) To determine the binding of PLZ4 to canine TCC cell lines, whole cell binding assay was performed. PLZ4 was synthesized on TentaGel S NH2 resin beads (Rapp Polymere Gmbh, Germany) (Pegram, et al., J Clin Oncol (1998) 16:2659-2671), and incubated with single suspensions of five different canine carcinoma cell lines including K9TCC-PU, K9TCC-PU-AxA, K9TCC-PU-In, K9TCC-PU-AxC, and K9TCC-PU-Nk (kindly provided by Deborah Knapp at Purdue University, West Lafayette, Ind., USA) at 10^6 cells/ml. The negative control was normal urothelial cells obtained from dogs that were euthanized due to non-bladder-related disorders. Human bladder cancer cell line, 5637 were served as the positive control. If PLZ4 bound to cells in suspension, then the bead surface was covered with cells. Over 95% of the bead surface was covered with 5637 and K9TCC cells (FIG. 7A-a and b, respectively).

5637 cells = assay: Flow cytometry binding affinity on 5637 cells; parameters: species or system human; conditions: PLZ4-biotin with streptavidin-PE
Description: All of the following steps were done on ice. 5×10^5 5637 cells were washed 3 times with 1 ml cold PBS (pH 7.4)-BSA (1%), re-suspended with 300 μl cold BSA (5%)-PBS (pH 7.4), and then incubated for 1 hour on ice. The cells were centrifuged and suspended with 50 μl PLZ4-biotin solution at 800, 400, 200, 100, 50, 25, 10, 5, 2.5, 1, 0.1, and 0 μM, and incubated for 1 hour on ice. Cells treated without PLZ4-biotin was considered as a control. After washing 6 times with 1 ml cold PBS-Tween-20 (0.05%) buffer, cells were re-suspended with 50 μl streptavidin (SA)-PE (1:500 in PBS-BSA, 1%) (1 mg/ml, Invitrogen, Carlsbad, Calif.), incubated for 1 hour on ice, washed with PBS (pH 7.4) 3 times, re-suspended with 500 μl PBS (pH 7.4), and analyzed using a Coulter Epics XL-MCL flow cytometer (Beckman Coulter, Inc.). The experiment was repeated three times. The mean value was expressed in FIG. 4.
Next, it was determined if fluorescence cell sorting could be used to identify bladder cancer cells. PLZ4 peptide conjugated to biotin through hydrophilic linkers was synthesized. Biotinylated PLZ4 was then incubated with streptavidin-PE to generate PLZ4-PE conjugate through the strong binding of biotin and streptavidin. […] The binding affinity (Kd) is around 30 μM.

[3] = test system: normal canine bladder urothelial cells; assay: Whole cell binding assay of Example 2, normal canine urothelial cells; conditions: PLZ4 beads
Description: as §1, §2

[4] = test system: vascular endothelial cells; assay: Binding to vascular endothelial cells
[5] = test system: cells isolated from urine specimens of patients actively treated with BCG intravesical therapy; format: binding, human; conditions: 4 consecutive patients with no evidence of bladder cancer
[6] = test system: bladder lymphoid hyperplasia specimen; assay: Binding to canine bladder lymphoid hyperplasia specimen; conditions: data not shown
5637 TCC cancer cells = assay: Bead binding to 5637 cells in urine at pH 6.0; parameters: species or system human; conditions: urine at pH 6.0, 4 hours, 37° C.
Description: The acidic environment in urine may change the 3-D structure of ligands and affect ligand binding. Here it was determined if the cancer-specific beads could bind to 5637 TCC cancer cells in urine. Cells were incubated with beads in urine at pH 6.0 for 4 hours at 37° C. 4-hour incubation was used to mimic the in vivo urine retention in patients and to permit conformational changes and protease digestion.

[7] = test system: cells from the normal specimen of the same bladder; assay: Whole cell bead binding assay, cells from normal specimen of the same bladder; parameters: species or system human; conditions: beads coated with PLZ4; same cystectomy specimen
Description: The beads were washed extensively with double-distilled water and phosphate-buffered saline (PBS) before screening. Bladder cancer cells and normal urothelial cells were detached from culture dishes with trypsin/EDTA or a Detach kit (PromoCell, Heidelberg, Germany), washed with their corresponding culture medium, resuspended at 10^6 cells/ml and incubated with OBOC beads in Petri dishes in a humidified CO2 incubator at 37° C. with shaking (60 rpm). Beads bound by cells appeared as rosettes with a central bead covered by a layer(s) of cells under a microscope. The positive beads were picked with a pipette under inverted microscope, treated with Quanidine HCl (8M, 20 min) to remove cells and proteins on beads surface, and underwent a second round of incubation with the same cells to confirm the binding. Only those beads with cell bindings at both rounds were sent for the amino acid sequencing as previously described (Peng, et al., Nat Chem Biol, (2006) 2: 381-389).
The cell surface molecules on established cell lines in culture may not be the same as those molecules on primary bladder cancer cells. It was assessed if PLZ4 could bind to bladder cancer cells from patients. Beads coated with PLZ4 could bind to primary bladder cancer cells from patients (FIGS. 3A and B). […] In one patient, both normal tissue and bladder cancer tissue from the same cystectomy specimen were available.

cQDGRMGFc ([dC]QDGRMGF[dC]; disulfide 1-9 (inferred)) [PLZ4, bladder cancer-specific ligand peptide]
binding to normal urothelial cells (normal urothelial cells): did not bind
binding to 12 cell lines with different origins [1]: did not bind to 10 out of 12 cell lines; also recorded: only bought to one of 12
bead surface covered with cells [2]: Over 95%
pKd (5637 cells): ~4.52
binding to normal canine bladder urothelial cells [3]: no cell binding
binding to vascular endothelial cells [4]: did not bind
binding to cells from urine of patients actively treated with BCG [5]: did not bind
binding to a bladder lymphoid hyperplasia specimen [6]: not to a bladder lymphoid hyperplasia specimen
binding to 5637 cells in urine (5637 TCC cancer cells): still able to bind cells in urine
binding to cells from the normal specimen of the same bladder [7]: not to the cells from the normal specimen
